What was measured:
Test in all cases: relative viability (nuclei count vs DMSO), 5 days (fraction); higher = more cells survive
[1] = tested on: EMC-BAC-2
How it was run: (§1)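 Cells from lung cancer lines were seeded into 1536-well plates and, one day later, dosed by pin tool. Treatments were either a single drug or a fixed dose of an anchor drug with five library-drug doses (not always all listed) in √10 steps. After 5 days, nuclei were stained in a one-step fixation (final 0.05% Triton X-100, 1% formaldehyde, 1 ug/ml Hoechst) and counted on 4× images, and relative viability is the treated-to-vehicle nuclei ratio, as the median of duplicate plates.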

[2] = tested on: EPLC-272H
How it was run: as §1

[3] = tested on: H3255
How it was run: as §1

[4] = tested on: HOP-62
How it was run: as §1

[5] = tested on: LCLC-97TM1
How it was run: as §1

[6] = tested on: LXF-289
How it was run: as §1

[7] = tested on: NCI-H1563
How it was run: as §1

[8] = tested on: NCI-H1734
How it was run: as §1

[9] = tested on: NCI-H1915
How it was run: as §1

[10] = tested on: NCI-H1993
How it was run: as §1

[11] = tested on: NCI-H2009
How it was run: as §1

[12] = tested on: NCI-H2023
How it was run: as §1

[13] = tested on: NCI-H2085
How it was run: as §1

[14] = tested on: NCI-H2126
How it was run: as §1

[15] = tested on: NCI-H2347
How it was run: as §1

[16] = tested on: NCI-H322M
How it was run: as §1

[17] = tested on: NCI-H647
How it was run: as §1

[18] = tested on: NCI-H661
How it was run: as §1

[19] = tested on: NCI-H727
How it was run: as §1

[20] = tested on: PC-14
How it was run: as §1

[21] = tested on: SK-LU-1
How it was run: as §1

[22] = tested on: SW 1573
How it was run: as §1

For `CCN(CC)CCCCNc1ncc2cc(-c3cc(OC)cc(OC)c3)c(NC(=O)NC(C)(C)C)nc2n1` + COc1cc2c(Oc3ccc(NC(=O)C4(C(=O)Nc5ccc(F)cc5)CC4)cc3F)ccnc2cc1OCCCN1CCOCC1 [Foretinib] (partner 0.25 µM), the relative viability ([1]; first compound 0.01 µM) was 0.54, the relative viability ([1]; first compound 0.03162 µM) was 1.02 and the relative viability ([1]; first compound 0.1 µM) was 0.983. For the same molecule, the relative viability ([1]; first compound 0.3162 µM) was 1.13, the relative viability ([1]; first compound 1 µM) was 0.952 and the relative viability ([2]; first compound 0.01 µM) was 0.63. It also gave a relative viability ([2]; first compound 0.03162 µM) of 0.877, a relative viability ([2]; first compound 0.1 µM) of 0.693 and a relative viability ([2]; first compound 0.3162 µM) of 0.741. For the same molecule, the relative viability ([2]; first compound 1 µM) was 0.644, the relative viability ([3]; first compound 0.01 µM) was 0.898 and the relative viability ([3]; first compound 0.03162 µM) was 0.915. For the same molecule, the relative viability ([3]; first compound 0.1 µM) was 1.04, the relative viability ([3]; first compound 0.3162 µM) was 0.943 and the relative viability ([3]; first compound 1 µM) was 0.85. The relative viability ([4]; first compound 0.01 µM) was 1.15, the relative viability ([4]; first compound 0.03162 µM) was 1.13 and the relative viability ([4]; first compound 0.1 µM) was 1.24. For the same molecule, the relative viability ([4]; first compound 0.3162 µM) was 1.16, the relative viability ([4]; first compound 1 µM) was 1.12 and the relative viability ([5]; first compound 0.01 µM) was 1.1. For the same molecule, the relative viability ([5]; first compound 0.03162 µM) was 0.94, the relative viability ([5]; first compound 0.1 µM) was 1.03 and the relative viability ([5]; first compound 0.3162 µM) was 1.06. For the same molecule, the relative viability ([5]; first compound 1 µM) was 0.95, the relative viability ([6]; first compound 0.01 µM) was 0.979 and the relative viability ([6]; first compound 0.03162 µM) was 0.989. It also gave a relative viability ([6]; first compound 0.1 µM) of 1.02, a relative viability ([6]; first compound 0.3162 µM) of 0.975 and a relative viability ([6]; first compound 1 µM) of 0.851. The relative viability ([7]; first compound 0.01 µM) was 0.921, the relative viability ([7]; first compound 0.03162 µM) was 0.896 and the relative viability ([7]; first compound 0.1 µM) was 1.03. It also gave a relative viability ([7]; first compound 0.3162 µM) of 0.907, a relative viability ([7]; first compound 1 µM) of 0.748 and a relative viability ([8]; first compound 0.01 µM) of 0.863. It also gave a relative viability ([8]; first compound 0.03162 µM) of 0.828, a relative viability ([8]; first compound 0.1 µM) of 0.83 and a relative viability ([8]; first compound 0.3162 µM) of 0.943. For the same molecule, the relative viability ([8]; first compound 1 µM) was 0.694, the relative viability ([9]; first compound 0.01 µM) was 1.15 and the relative viability ([9]; first compound 0.03162 µM) was 1.24. For the same molecule, the relative viability ([9]; first compound 0.1 µM) was 1.13, the relative viability ([9]; first compound 0.3162 µM) was 1.27 and the relative viability ([9]; first compound 1 µM) was 1.15. For the same molecule, the relative viability ([10]; first compound 0.01 µM) was 0.751, the relative viability ([10]; first compound 0.03162 µM) was 0.791 and the relative viability ([10]; first compound 0.1 µM) was 0.934. It also gave a relative viability ([10]; first compound 0.3162 µM) of 0.917, a relative viability ([10]; first compound 1 µM) of 0.714 and a relative viability ([11]; first compound 0.01 µM) of 1.33. The relative viability ([11]; first compound 0.03162 µM) was 1.25, the relative viability ([11]; first compound 0.1 µM) was 1.22 and the relative viability ([11]; first compound 0.3162 µM) was 1.29. The relative viability ([11]; first compound 1 µM) was 1.18, the relative viability ([12]; first compound 0.01 µM) was 0.954 and the relative viability ([12]; first compound 0.03162 µM) was 0.961. For the same molecule, the relative viability ([12]; first compound 0.1 µM) was 0.864, the relative viability ([12]; first compound 0.3162 µM) was 0.853 and the relative viability ([12]; first compound 1 µM) was 0.758. The relative viability ([13]; first compound 0.01 µM) was 0.968, the relative viability ([13]; first compound 0.03162 µM) was 0.821 and the relative viability ([13]; first compound 0.1 µM) was 1. It also gave a relative viability ([13]; first compound 0.3162 µM) of 0.897, a relative viability ([13]; first compound 1 µM) of 0.866 and a relative viability ([14]; first compound 0.01 µM) of 1.37. It also gave a relative viability ([14]; first compound 0.03162 µM) of 1.3, a relative viability ([14]; first compound 0.1 µM) of 1.14 and a relative viability ([14]; first compound 0.3162 µM) of 1.22. The relative viability ([14]; first compound 1 µM) was 1.11, the relative viability ([15]; first compound 0.01 µM) was 0.744 and the relative viability ([15]; first compound 0.03162 µM) was 0.85. For the same molecule, the relative viability ([15]; first compound 0.1 µM) was 1.4, the relative viability ([15]; first compound 0.3162 µM) was 1.12 and the relative viability ([15]; first compound 1 µM) was 0.766. The relative viability ([16]; first compound 0.01 µM) was 0.991, the relative viability ([16]; first compound 0.03162 µM) was 0.946 and the relative viability ([16]; first compound 0.1 µM) was 1.08. The relative viability ([16]; first compound 0.3162 µM) was 1.01, the relative viability ([16]; first compound 1 µM) was 0.966 and the relative viability ([17]; first compound 0.01 µM) was 1.15. It also gave a relative viability ([17]; first compound 0.03162 µM) of 1.39, a relative viability ([17]; first compound 0.1 µM) of 1.43 and a relative viability ([17]; first compound 0.3162 µM) of 1.55. The relative viability ([17]; first compound 1 µM) was 1.08, the relative viability ([18]; first compound 0.01 µM) was 1.07 and the relative viability ([18]; first compound 0.03162 µM) was 1.04. For the same molecule, the relative viability ([18]; first compound 0.1 µM) was 1.03, the relative viability ([18]; first compound 0.3162 µM) was 1.07 and the relative viability ([18]; first compound 1 µM) was 1.02. For the same molecule, the relative viability ([19]; first compound 0.01 µM) was 0.956, the relative viability ([19]; first compound 0.03162 µM) was 0.834 and the relative viability ([19]; first compound 0.1 µM) was 0.919. The relative viability ([19]; first compound 0.3162 µM) was 1.05, the relative viability ([19]; first compound 1 µM) was 0.844 and the relative viability ([20]; first compound 0.01 µM) was 0.976. It also gave a relative viability ([20]; first compound 0.03162 µM) of 0.976, a relative viability ([20]; first compound 0.1 µM) of 1.08 and a relative viability ([20]; first compound 0.3162 µM) of 1.07. The relative viability ([20]; first compound 1 µM) was 0.885, the relative viability ([21]; first compound 0.01 µM) was 0.942 and the relative viability ([21]; first compound 0.03162 µM) was 0.78. It also gave a relative viability ([21]; first compound 0.1 µM) of 1.12, a relative viability ([21]; first compound 0.3162 µM) of 1.07 and a relative viability ([21]; first compound 1 µM) of 0.662. For the same molecule, the relative viability ([22]; first compound 0.01 µM) was 0.928, the relative viability ([22]; first compound 0.03162 µM) was 0.878 and the relative viability ([22]; first compound 0.1 µM) was 0.924. The relative viability ([22]; first compound 0.3162 µM) was 0.896 and the relative viability ([22]; first compound 1 µM) was 0.814.

Reference: the supplement of paper PMC10307832
